# In patent US20120115896A1, “ISOGENIC HUMAN CELL LINES COMPRISING MUTATED CANCER ALLELES AND PROCESS USING THE CELL LINES” (priority 2008, published 2012):
# Where two headings read alike, the source gives them in different places.
# Experiments:
# [1] = system: hTERT-HME1 DKI cells carrying PIK3CA (H1047R) and EGFR (delE746-A750); test: Drug assay: cell viability by ATP content (96 h), DKI versus parental cells; ΔKI pharmarray analysis
# [2] = system: hTERT-HME1 cells carrying KRAS (G13D) KI; test: Drug assay: cell viability by ATP content (96 h), KI versus parental cells; ΔKI pharmarray analysis
# [3] = system: hTERT-HME1 cells carrying PIK3CA (E545K and H1047R) KI; test: Drug assay: cell viability by ATP content (96 h) and Hoechst/propidium iodide staining, KI versus parental cells; ΔKI pharmarray analysis
# [4] = system: hTERT-HME1 cells carrying BRAF (V600E) KI; test: Drug assay: cell viability by ATP content (96 h), KI versus parental cells; ΔKI pharmarray analysis
# [5] = system: hTERT-HME1 cells carrying EGFR (delE746-A750) KI; test: Drug assay: cell viability by ATP content (CellTiter-Glo, 96 h), KI versus parental cells; ΔKI pharmarray analysis; conditions: for pharmarray: differential response of EGFR mutated cells versus WT: hTERT-HME1, FIG. 5B, 5E
compound,measurement,setting,value
O=c1[nH]cc(F)c(=O)[nH]1 [5-FU],ΔKI PIK3CA + EGFR,[1],0
same,ΔKI KRAS,[2],0
same,ΔKI PIK3CA,[3],0
same,ΔKI BRAF,[4]; listed as OGC-083,0
same,ΔKI EGFR,[5],0
"C=CCNC1=C2C[C@@H](C)C[C@H](OC)[C@H](O)[C@@H](C)/C=C(\C)[C@H](OC(N)=O)[C@@H](OC)/C=C\C=C(/C)C(=O)NC(=CC1=O)C2=O [17-AAG, 17-Allylamino geldanamycin]",ΔKI PIK3CA + EGFR,[1],0
same,ΔKI PIK3CA + EGFR,[1]; Log(M) −5.70,1.18
same,ΔKI PIK3CA + EGFR,[1]; Log(M) −6.70,0
same,ΔKI PIK3CA,[3],0
same,ΔKI PIK3CA,[3]; Log(M) −5.70,3
same,ΔKI PIK3CA,[3]; Log(M) −6.70,0
same,ΔKI BRAF,[4],0
same,ΔKI BRAF,[4]; Log(M) −5.70,0.08
same,ΔKI BRAF,[4]; Log(M) −6.70,0
same,ΔKI EGFR,[5],−11.7
same,ΔKI EGFR,[5]; Log(M) −5.70,0
same,ΔKI EGFR,[5]; Log(M) −6.70,0
same,pharmarray: differential response of EGFR mutated cells versus WT,[5],less susceptible than their WT counterpart
CO[C@H]1/C=C\C=C(/C)C(=O)NC2=CC(=O)C(NCCN(C)C)=C(C[C@@H](C)C[C@H](OC)[C@H](O)[C@@H](C)/C=C(\C)[C@@H]1OC(N)=O)C2=O [17-DMAG],ΔKI PIK3CA + EGFR,[1]; Log(M) −6.19,1.4
same,ΔKI PIK3CA + EGFR,[1]; Log(M) −6.89,4.46
same,ΔKI PIK3CA + EGFR,[1]; Log(M) −7.00,0
same,ΔKI PIK3CA + EGFR,[1]; Log(M) −7.40,−0.12
same,ΔKI PIK3CA + EGFR,[1]; Log(M) −7.70,0
same,ΔKI PIK3CA + EGFR,[1]; Log(M) −8.10,−1.02
same,ΔKI PIK3CA + EGFR,[1]; Log(M) −8.40,0
same,ΔKI KRAS,[2]; Log(M) −6.19,0
same,ΔKI KRAS,[2]; Log(M) −6.89,0
same,ΔKI KRAS,[2]; Log(M) −7.00,0
same,ΔKI KRAS,[2]; Log(M) −7.40,0
same,ΔKI KRAS,[2]; Log(M) −7.70,0
same,ΔKI KRAS,[2]; Log(M) −8.10,0
same,ΔKI KRAS,[2]; Log(M) −8.40,0
same,ΔKI PIK3CA,[3]; Log(M) −6.19,0
same,ΔKI PIK3CA,[3]; Log(M) −6.89,0
same,ΔKI PIK3CA,[3]; Log(M) −7.00,0
same,ΔKI PIK3CA,[3]; Log(M) −7.40,0
same,ΔKI PIK3CA,[3]; Log(M) −7.70,0
same,ΔKI PIK3CA,[3]; Log(M) −8.10,0
same,ΔKI PIK3CA,[3]; Log(M) −8.40,0
same,ΔKI BRAF,[4]; Log(M) −6.19,0
same,ΔKI BRAF,[4]; Log(M) −6.89,0
same,ΔKI BRAF,[4]; Log(M) −7.00,0
same,ΔKI BRAF,[4]; Log(M) −7.40,0
same,ΔKI BRAF,[4]; Log(M) −7.70,0
same,ΔKI BRAF,[4]; Log(M) −8.10,0
same,ΔKI BRAF,[4]; Log(M) −8.40,0
same,ΔKI EGFR,[5]; Log(M) −6.19,−1.5
same,ΔKI EGFR,[5]; Log(M) −6.89,−12.5
same,ΔKI EGFR,[5]; Log(M) −7.00,0
same,ΔKI EGFR,[5]; Log(M) −7.40,0
same,ΔKI EGFR,[5]; Log(M) −7.70,−8.56
same,ΔKI EGFR,[5]; Log(M) −8.10,0
same,ΔKI EGFR,[5]; Log(M) −8.40,0
same,pharmarray: differential response of EGFR mutated cells versus WT,[5],less susceptible than their WT counterpart
CCCCC/C=C\C/C=C\C/C=C\C/C=C\CCCC(=O)Nc1ccc(O)cc1 [AM404],ΔKI PIK3CA + EGFR,[1],0
same,ΔKI PIK3CA + EGFR,[1]; Log(M) −4.70,0
same,ΔKI KRAS,[2],0
same,ΔKI KRAS,[2]; Log(M) −4.70,0
same,ΔKI PIK3CA,[3],0
same,ΔKI PIK3CA,[3]; Log(M) −4.70,0
same,ΔKI BRAF,[4],−0.12
same,ΔKI BRAF,[4]; Log(M) −4.70,−1.68
same,ΔKI EGFR,[5],0
same,ΔKI EGFR,[5]; Log(M) −4.70,0
CC(C)c1c(C(=O)Nc2ccccc2)c(-c2ccccc2)c(-c2ccc(F)cc2)n1CC[C@@H](O)C[C@@H](O)CC(=O)[O-].CC(C)c1c(C(=O)Nc2ccccc2)c(-c2ccccc2)c(-c2ccc(F)cc2)n1CC[C@@H](O)C[C@@H](O)CC(=O)[O-].[Ca+2] [Atorvastatin Ca],ΔKI PIK3CA + EGFR,[1]; Log(M) −5.25,0
same,ΔKI PIK3CA + EGFR,[1]; Log(M) −5.85,0
same,ΔKI PIK3CA + EGFR,[1]; Log(M) −6.46,0
same,ΔKI KRAS,[2]; Log(M) −5.25,0
same,ΔKI KRAS,[2]; Log(M) −5.85,0
same,ΔKI KRAS,[2]; Log(M) −6.46,0
same,ΔKI PIK3CA,[3]; Log(M) −5.25,0
same,ΔKI PIK3CA,[3]; Log(M) −5.85,9.44
same,ΔKI PIK3CA,[3]; Log(M) −6.46,0
same,ΔKI BRAF,[4]; Log(M) −5.25,0
same,ΔKI BRAF,[4]; Log(M) −5.85,−2.6
same,ΔKI BRAF,[4]; Log(M) −6.46,0
same,ΔKI EGFR,[5]; Log(M) −5.25,0
same,ΔKI EGFR,[5]; Log(M) −5.85,0
same,ΔKI EGFR,[5]; Log(M) −6.46,0
CN(C)CCCn1cc(C2=C(c3c[nH]c4ccccc34)C(=O)NC2=O)c2ccccc21 [Bisindolylmaleimide I],ΔKI PIK3CA + EGFR,[1],0
same,ΔKI PIK3CA + EGFR,[1]; Log(M) −5.70,0
same,ΔKI KRAS,[2],0
same,ΔKI KRAS,[2]; Log(M) −5.70,0
same,ΔKI PIK3CA,[3],0
same,ΔKI PIK3CA,[3]; Log(M) −5.70,0
same,ΔKI BRAF,[4],0
same,ΔKI BRAF,[4]; Log(M) −5.70,0
same,ΔKI EGFR,[5],0
same,ΔKI EGFR,[5]; Log(M) −5.70,0
N.N.[Cl][Pt][Cl] [Cisplatin],ΔKI PIK3CA + EGFR,[1]; Log(M) −4.70,0
same,ΔKI PIK3CA + EGFR,[1]; Log(M) −5.00,4.9
same,ΔKI PIK3CA + EGFR,[1]; Log(M) −5.70,2.16
same,ΔKI PIK3CA + EGFR,[1]; Log(M) −6.00,0.7
same,ΔKI PIK3CA + EGFR,[1]; Log(M) −6.70,0
same,ΔKI PIK3CA + EGFR,[1]; Log(M) −7.00,−1.32
same,ΔKI KRAS,[2]; Log(M) −4.70,0
same,ΔKI KRAS,[2]; Log(M) −5.00,0
same,ΔKI KRAS,[2]; Log(M) −5.70,0
same,ΔKI KRAS,[2]; Log(M) −6.00,0
same,ΔKI KRAS,[2]; Log(M) −6.70,0
same,ΔKI KRAS,[2]; Log(M) −7.00,0
same,ΔKI PIK3CA,[3]; Log(M) −4.70,0
same,ΔKI PIK3CA,[3]; Log(M) −5.00,0
same,ΔKI PIK3CA,[3]; Log(M) −5.70,0
same,ΔKI PIK3CA,[3]; Log(M) −6.00,0
same,ΔKI PIK3CA,[3]; Log(M) −6.70,0
same,ΔKI PIK3CA,[3]; Log(M) −7.00,0
same,ΔKI BRAF,[4]; Log(M) −4.70,3.82
same,ΔKI BRAF,[4]; Log(M) −5.00,0
same,ΔKI BRAF,[4]; Log(M) −5.70,7.62
same,ΔKI BRAF,[4]; Log(M) −6.00,0
same,ΔKI BRAF,[4]; Log(M) −6.70,0
same,ΔKI BRAF,[4]; Log(M) −7.00,0
same,ΔKI EGFR,[5]; Log(M) −4.70,0
same,ΔKI EGFR,[5]; Log(M) −5.00,4.84
same,ΔKI EGFR,[5]; Log(M) −5.70,0
same,ΔKI EGFR,[5]; Log(M) −6.00,0
same,ΔKI EGFR,[5]; Log(M) −6.70,0
same,ΔKI EGFR,[5]; Log(M) −7.00,0
CC/C(=C(\c1ccc(O)cc1)c1ccc(OCCN(C)C)cc1)c1ccccc1 [Tamoxifen 4-Hydroxy-(Z)],ΔKI KRAS,[2],0
same,ΔKI BRAF,[4],0
